According to patent US10912819B2, “Neuroprotective peptides derived from activity-dependent neuroprotective protein for treatment of neurological diseases” (priority 2016, dated 2021):

Test system: Adnp^+/− mice
Test: Hanging wire test
Type: in vivo
Description: The hanging wire test measures the strength of the mouse paws by using the latency to fall off from an inverted cage lid (placed 50 cm above the surface) onto a soft bedding (maximum time 120 sec). Data are expressed as mean±SEM.

[1] = 5-month-old mice, 0.5 μg NAP/mouse/day intranasal in CB, 3 weeks, p<0.05

Structure (SMILES): CC[C@H](C)[C@H](NC(=O)[C@H](CO)NC(=O)[C@@H](NC(=O)[C@@H]1CCCN1C(=O)[C@H](C)NC(=O)[C@@H](N)CC(N)=O)C(C)C)C(=O)N1CCC[C@H]1C(=O)N[C@@H](CCC(N)=O)C(=O)O [NAP]
- latency to fall, males (2-month-old mice, 0.5 μg NAP/mouse/day intranasal in DD, 5 weeks, p<0.01): improved
- latency to fall, females [1]: significant difference
- latency to fall, males [1]: significant difference
